Test results reported in patent publication US9273043B2, “TRPV1 antagonists including dihydroxy substituent and uses thereof” (Purdue Pharma L.P., priority 2011, dated 2016).

Legend:
human TRPV1 = human TRPV1 (Homo sapiens (Human), UniProt Q8NER1); assay: Capsaicin-based assay, Protocol 2, TRPV1/CHO cells (hCAP-CHO), Fluo-4 FLIPR; format: cell-based; details: 100 nM capsaicin, mean ± SEM
Procedure, shortened: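 CHO cells stably transfected with human TRPV1 cDNA (G418-selected) were loaded with 3 μM Fluo-4 for 1 h, washed, then read on FLIPR with 15 s baseline before additions. Compound tested at final 100 μM to 1.5625 μM against capsaicin stimulation; calcium fluorescence time course curve-fitted.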

[1] = In vivo assay of body temperature increase (rectal body temperature); set-up: species or system rat; details: rats, oral, 10 mL/kg of 1 mg/mL in 0.5% methylcellulose; greatest ΔTb versus vehicle control at 0.5, 1 or 2 hrs
Procedure, shortened: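 Male Crl/SD rats (7 weeks), acclimated and preselected for rectal temperature 37.0–37.7° C., given compound orally once at 1 mg/mL in 0.5% methylcellulose, 10 mL/kg. Rectal temperature by thermistor at 0.5, 1 and 2 h post-dose; ΔTb = treated group mean minus vehicle group mean, maximum across time points reported.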

Sequence of human TRPV1 (Q8NER1 whole entry, looked up): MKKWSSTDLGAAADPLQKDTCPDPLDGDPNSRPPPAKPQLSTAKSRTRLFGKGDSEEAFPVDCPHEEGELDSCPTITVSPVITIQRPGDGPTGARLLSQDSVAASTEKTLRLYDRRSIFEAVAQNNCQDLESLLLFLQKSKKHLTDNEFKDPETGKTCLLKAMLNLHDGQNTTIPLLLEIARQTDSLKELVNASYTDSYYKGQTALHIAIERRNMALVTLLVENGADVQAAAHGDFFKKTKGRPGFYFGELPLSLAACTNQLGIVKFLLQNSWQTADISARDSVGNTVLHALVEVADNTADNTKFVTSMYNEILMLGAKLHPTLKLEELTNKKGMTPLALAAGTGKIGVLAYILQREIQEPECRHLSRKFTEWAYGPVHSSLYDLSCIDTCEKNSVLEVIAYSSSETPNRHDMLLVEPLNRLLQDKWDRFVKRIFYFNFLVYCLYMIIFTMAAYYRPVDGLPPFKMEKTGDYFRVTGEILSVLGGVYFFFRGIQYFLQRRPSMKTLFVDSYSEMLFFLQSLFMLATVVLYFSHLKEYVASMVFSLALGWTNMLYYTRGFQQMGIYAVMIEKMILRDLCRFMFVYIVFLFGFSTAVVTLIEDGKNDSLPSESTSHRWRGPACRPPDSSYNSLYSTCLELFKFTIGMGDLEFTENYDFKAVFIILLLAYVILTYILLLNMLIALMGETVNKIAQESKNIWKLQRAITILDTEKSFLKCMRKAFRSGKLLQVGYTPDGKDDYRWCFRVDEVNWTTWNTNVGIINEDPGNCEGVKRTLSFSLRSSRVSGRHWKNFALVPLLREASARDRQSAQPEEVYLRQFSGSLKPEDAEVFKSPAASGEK

Row | SMILES | IC50 (human TRPV1) [nM] | ΔTb, body temperature increase [1] [°C]
1 | C[C@H]1CN(c2ncc([C@H](O)CO)cc2F)CCN1C(=O)Nc1nc2ccccc2s1 [A122(a), (S)—N-(benzo[d]thiazol-2-yl)-4-(5-((S)-1,2-dihydroxyethyl)-3-fluoropyridin-2-yl)-2-methylpiperazine-1-carboxamide] | 177 ± 69 | 0.4
2 | C[C@@H]1CN(C(=O)Nc2nc3ccc(F)cc3s2)CCN1c1ncc([C@H](O)CO)cc1F [A125(b), (R)-4-{5-[(S)-1,2-dihydroxyethyl]-3-fluoropyridin-2-yl}-N-(6-fluorobenzo[d]thiazol-2-yl)-3-methylpiperazine-1-carboxamide] | 112 ± 32 | 0.1
3 | Cc1ccc2nc(NC(=O)N3CCN(c4ncc([C@H](O)CO)cc4F)C[C@@H]3C)sc2c1 [A126(a), (S)-4-(5-((S)-1,2-dihydroxyethyl)-3-fluoropyridin-2-yl)-2-methyl-N-(6-methylbenzo[d]thiazol-2-yl)piperazine-1-carboxamide] | 40.2 ± 11 | 0.2
4 | C[C@H]1CN(c2ncc([C@H](O)CO)cc2F)CCN1C(=O)Nc1nc2cc(F)c(F)cc2s1 [A158(a), (S)—N-(5,6-difluorobenzo[d]thiazol-2-yl)-4-(5-((S)-1,2-dihydroxyethyl)-3-fluoropyridin-2-yl)-2-methylpiperazine-1-carboxamide] | 62.4 ± 13.8 | 0.4
5 | Cc1ccc2nc(NC(=O)N3CCN(c4ncc([C@H](O)[C@H](C)O)cc4F)CC3)sc2c1 [C126(r), 4-[5-((1S,2S)-1,2-Dihydroxy-propyl)-3-fluoro-pyridin-2-yl]piperazine-1-carboxylic acid (6-methyl-benzothiazol-2-yl)-amide] | 71 ± 20 | 0.4

Continued by falling IC50 (human TRPV1), values first:

Row | IC50 (human TRPV1) [nM] | ΔTb, body temperature increase [1] [°C] | SMILES
6 | 99 ± 24 | 0.3 | C[C@H](O)[C@@H](O)c1cnc(N2CCN(C(=O)Nc3nc4ccc(F)cc4s3)CC2)c(F)c1 [C125(r), 4-(5-((1S,2S)-1,2-dihydroxypropyl)-3-fluoropyridin-2-yl)-N-(6-fluorobenzo[d]thiazol-2-yl)piperazine-1-carboxamide]
7 | 89 ± 34 | 0.2 | Cc1cc2nc(NC(=O)N3CCN(c4ncc([C@H](O)[C@H](C)O)cc4F)CC3)sc2cc1C [C170(r), 4-(5-((1S,2S)-1,2-dihydroxypropyl)-3-fluoropyridin-2-yl)-N-(5,6-dimethylbenzo[d]thiazol-2-yl)piperazine-1-carboxamide]
8 | 68 ± 17 | 0.5 | C[C@@H]1CN(C(=O)Nc2nc3cc(F)c(F)cc3s2)CCN1c1ncc([C@H](O)CO)cc1F [AE, (R)—N-(5,6-difluorobenzo[d]thiazol-2-yl)-4-{5-[(S)-1,2-dihydroxyethyl]-3-fluoropyridin-2-yl}-3-methylpiperazine-1-carboxamide]
9 | 49 ± 10 | 0.1 | C[C@H](O)[C@@H](O)c1cnc(N2CCN(C(=O)Nc3nc4cc(F)c(F)cc4s3)C[C@H]2C)c(F)c1 [B158(j), (R)—N-(5,6-difluorobenzo[d]thiazol-2-yl)-4-{5-[(1S,2S)-1,2-dihydroxypropyl]-3-fluoropyridin-2-yl}-3-methylpiperazine-1-carboxamide]
10 | 42.8 ± 2 | 0.3 | C[C@H](O)[C@@H](O)c1cnc(N2CCN(C(=O)Nc3nc4ccc(F)cc4s3)CC2)c(Cl)c1 [C4(r), 4-{3-Chloro-5-[(1S,2S)-1,2-dihydroxypropyl]pyridin-2-yl}-N-(6-fluorobenzo[d]thiazol-2-yl)piperazine-1-carboxamide]
